Earlier results on four compounds are cited in patent publication EP4803073A2, “METHODS AND COMPOSITIONS FOR TREATMENT OF DISORDERS AMELIORATED BY MUSCARINIC RECEPTOR ACTIVATION” (Puretech Health LLC, priority 2009, dated 2011).

The conditions of series [1]: clozapine-associated sialorrhea.
The conditions of series [2]: given with the muscarinic agonist xanomeline; syncope is a side effect observed with xanomeline.
For series [3] the following is noted: phase I and subsequent trials.
The conditions of series [4]: double-blind placebo controlled trial.
The conditions of series [5]: with the anticholinergic agent glycopyrrolate; escalating amounts of RS-86.

Molecules are shown by their SMILES.

For `Clc1cccc(Cl)c1N=C1NCCN1` [clonidine], in series [1], the “efficacy in reducing sialorrhea” value is “shown efficacy in reducing sialorrhea in small scale trials”.

On to `C[N+]1(C)[C@@H]2C[C@@H](OC(=O)[C@H](CO)c3ccccc3)C[C@H]1[C@@H]1O[C@@H]12` [methscopolamine], for which, in series [2], the effect on syncope entry was “no effect on syncope”.

As for `CCCCCCOc1nsnc1C1=CCCN(C)C1` [xanomeline], the side effects result in series [3] is on record as “unacceptable GI side effects”. The alleviation of schizophrenia entry in series [4] is reported as “alleviation of schizophrenia was observed”.

On to `CCN1C(=O)CC2(CCN(C)CC2)C1=O` [RS-86], for which the improvement in cognition result in series [5] is reported as “did not result in any improvement in cognition”.
